Measured values as given in US20220296536A1, “PAIN MANAGEMENT METHODOLOGY” (priority 2019, published 2022).
Where two headings read alike, the source gives them in different places.

Columns and labels:
[1] = system: pain in a patient; assay: earlier pharmaceutical treatment of Patient A's pain; format: in vivo, human; details: terminal prostate cancer, before use of the method
From the text: Patient A was a person having terminal prostate cancer. Patient A was suffering a high level of pain, for which pharmaceutical treatment, even morphine, had become ineffective.

[2] = system: pain in a patient
Description: In each of the examples, below, the method of the invention was used: the patient was aurally isolated in a quiet room, being the waiting room or vestibule to an operating theatre with only the deliverer present during the aural isolation period. The patient was exposed to the repetitive, positive message delivered orally by the deliverer. The chosen period was between 20 and 30 minutes. The deliverer repeated the message constantly during the chosen period. The message was: ‘When I wake up, I will have no pain’.
At the conclusion of the chosen period, the patient was administered propofol and became unconscious.

[3] = Example 5, Patient B, hip replacement

Row | SMILES | effect of pharmaceutical treatment on high level of pain [1] | pain after surgery ([2]; Example 1, Patient A, terminal prostate cancer, surgery for incontinence problem, from regaining consciousness until three weeks later) | pain ([2]; Example 2, Patient B, bleeding on the brain, skull drilled to drain blood) | pain post-surgery ([2]; Example 3, Patient B, cataract surgery) | post-operative pain ([2]; Example 4, Patient B, radical endoscopic sinus surgery) | pain post-surgery [2, 3] | recovery [2, 3] | time to being ambulatory ([2]; Example 5, Patient B, hip replacement, 7 days bed rest normally expected) | pain after surgery ([2]; Example 6, Patient B, painful infection within left shoulder, surgery) | pain post-surgery ([2]; Example 7, Patient B, osteomyelitis in right hip, stripping of veins and skin graft) | pain post-surgery ([2]; Example 8, Patient B, open-heart surgery to replace aortic valve, three surgeries) | pain post-surgery ([2]; Example 9, Patient C, hip replacement) | pain post-surgery ([2]; Example 10, Patient D, radical hysterectomy) | need for pharmaceutical pain relief after use of the method ([2]; all patients of Examples 1-10, propofol given after 20-30 min aural isolation with message) | recovery from surgery ([2]; all patients of the examples, when surgery was used)
1 | CN1CC[C@]23c4c5ccc(O)c4O[C@H]2[C@@H](O)C=C[C@H]3[C@H]1C5 [morphine] | ineffective | – | – | – | – | – | – | – | – | – | – | – | – | – | –
2 | CC(C)c1cccc(C(C)C)c1O [propofol, 2,6-diisopropylphenol] | – | free of pain | experienced no pain | experienced no pain post-surgery | experienced no post-operative pain | no pain post-surgery | accelerated recovery | ambulatory within one hour | pain-free | no pain post-surgery | no pain post-surgery each time | no pain post-surgery | experienced no pain post-surgery | None of the patients in the examples below required pharmaceutical pain relief | All experienced accelerated recovery from surgery
